Measured values published in patent publication US10918633B2, “Method of treating coronavirus” (MyMD Pharmaceuticals, Inc., priority 2015, dated 2021).
Entries after “also recorded” stand apart in the source; their conditions may differ.

Legend:
MAO-A = target: T1, MAO-A (Homo sapiens, UniProt P21397); experiment: MAO-Glo luminescent assay, MAO-A inhibition; assay type: biochemical; conditions: FIG. 1
T1 construct: purchased
T1 sequence (P21397 1-527): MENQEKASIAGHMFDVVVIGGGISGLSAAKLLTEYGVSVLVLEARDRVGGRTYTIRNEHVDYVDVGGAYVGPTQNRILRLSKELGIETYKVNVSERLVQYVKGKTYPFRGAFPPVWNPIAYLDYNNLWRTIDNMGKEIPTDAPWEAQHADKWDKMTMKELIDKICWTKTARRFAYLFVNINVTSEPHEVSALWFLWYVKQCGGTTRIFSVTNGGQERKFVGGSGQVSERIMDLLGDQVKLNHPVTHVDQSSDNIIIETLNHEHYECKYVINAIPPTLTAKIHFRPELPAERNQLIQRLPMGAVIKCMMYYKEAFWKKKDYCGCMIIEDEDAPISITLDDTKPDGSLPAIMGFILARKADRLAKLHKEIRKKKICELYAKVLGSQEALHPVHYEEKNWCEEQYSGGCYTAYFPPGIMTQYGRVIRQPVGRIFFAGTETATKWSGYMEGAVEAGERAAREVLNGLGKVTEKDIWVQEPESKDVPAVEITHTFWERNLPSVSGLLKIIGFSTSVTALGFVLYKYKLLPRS
Description: (§1) This example describes experiments for determining monoamine oxidase (MAO) inhibition for isomyosmine and other alkaloids. MAOs are enzymes located on the outer membrane of mitochondria and are involved in the catabolism of monoamine neurotransmitters. There are two well-characterized isoenzymes: MAO-A, which predominantly catabolizes serotonin and norepinephrine, and MAO-B, which preferentially catabolizes benzylamine and phenylethylamine. Dopamine and tyramine are metabolized by both isoforms.
(§2) To detect the activity of MAO, a luminescent method (MAO-Glo Assay kit, from Promega, Cat #V1401) was used. In this method, a MAO substrate (a derivative of beetle luciferin provided in the kit) is mixed with the compound to be tested (in this case, myosmine and control compounds). Then, the MAO enzymes (either A or B, purchased separately) are added to the mixture and incubated with the reaction for 1 hour at room temperature. The MAO enzymes, if not inhibited by the test compound, will convert the substrate into methyl ester luciferin. Finally, a luciferin detection reagent (provided by the kit) is added (20 minutes at room temperature) to stop the MAO reaction and convert methyl ester luciferin into D-luciferin. […] The luminescent signal is measured and recorded using a luminometer. […]

MAO-B = target: T2, MAO-B (Homo sapiens, UniProt P27338); experiment: MAO-Glo luminescent assay, MAO-B inhibition; assay type: biochemical; conditions: compared with myosmine, anatabine, anabasine, nornicotine; FIG. 2
T2 construct: purchased
T2 sequence (P27338 1-520): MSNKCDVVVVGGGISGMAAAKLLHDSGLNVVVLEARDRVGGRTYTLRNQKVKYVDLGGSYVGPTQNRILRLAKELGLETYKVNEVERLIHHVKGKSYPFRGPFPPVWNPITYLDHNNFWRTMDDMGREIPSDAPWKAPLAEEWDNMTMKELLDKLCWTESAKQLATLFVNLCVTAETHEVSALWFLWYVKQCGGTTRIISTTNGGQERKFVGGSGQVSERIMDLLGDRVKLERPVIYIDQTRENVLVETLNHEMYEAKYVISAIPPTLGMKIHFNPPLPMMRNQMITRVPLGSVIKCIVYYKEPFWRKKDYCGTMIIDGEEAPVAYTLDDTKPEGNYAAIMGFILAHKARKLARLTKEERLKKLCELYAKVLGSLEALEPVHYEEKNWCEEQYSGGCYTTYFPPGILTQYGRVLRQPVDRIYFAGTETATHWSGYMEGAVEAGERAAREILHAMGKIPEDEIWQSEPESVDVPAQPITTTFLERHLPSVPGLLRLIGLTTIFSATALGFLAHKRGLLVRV
Description: as §1, §2

hydrogen sulfide (H2S) = experiment: Serum hydrogen sulfide (H2S) by ELISA in mice with EAE; assay type: in vivo; conditions: 5 mg/ml isomyosmine in water, FIG. 3A-3B
Procedure: This example describes an experiment to determine whether treatments with isomyosmine have an effect on hydrogen sulfide (H2S) quantity in mice with experimental autoimmune encephalomyelitis (EAE). Mice were immunized for EAE on day 0 and treated with either vehicle control or 5 mg/ml isomyosmine in water, for the duration of the experiment. Blood was collected, serum was separated and assayed for H2S via Kamiya Biomedical ELISA kit per the manufacturer's instructions. Two different experiments were performed. In the first experiment, blood was collected at the end of disease course. In the second experiment, blood was collected at day 12 after immunization.

[1] = test system: purified nitrate reductase; experiment: Cell-free nitrate reductase inhibition, Griess reaction; assay type: biochemical
Procedure: Standard concentrations of nitrate were incubated with purified nitrate reductase and vehicle or isomyosmine, and the Griess reaction was used to measure nitrite. Several concentrations of nitrate and two concentrations of isomyosmine were used.

[2] = test system: herpes labialis (cold sores), a type of herpes simplex; experiment: Treatment of herpes labialis (cold sores) in an individual; assay type: in vivo, human; conditions: 100 mg dose upon first feeling the onset of a cold sore
Procedure: This example illustrates administering isomyosmine to treat herpes labialis (cold sores), a type of herpes simplex occurring on the lip. An individual who experiences periodic outbreaks of herpes labialis was administered a 100 mg dose of isomyosmine upon first feeling the onset of a cold sore.

SMILES: C1=NC(c2cccnc2)CC1 (centres unmarked) [isomyosmine, 3-(3,4-dihydro-2H-pyrrol-2-yl)-pyridine]
- inhibition at 2000 µM (MAO-A; 2 mM concentration (2,000 micromolar), read-out: inhibition of the enzymatic activity of MAO-A): ~50%
- inhibition of the enzymatic activity of MAO-A (in words, curve position) (MAO-A; compared with myosmine, anatabine, anabasine, nornicotine): most potent of the five; also recorded: potent inhibitor
- inhibition of the activity of MAO-B (in words) (MAO-B): most potent among the five alkaloids tested; also recorded: potent inhibitor
- H2S in serum as measured by ELISA (hydrogen sulfide (H2S); blood collected at day 12 after immunization): trend toward an increase in H2S
- H2S in serum as measured by ELISA (hydrogen sulfide (H2S); blood collected at the end of disease course): trend toward an increase in H2S
- inhibition of nitrate reductase ([1]; high amount of substrate, system saturated (FIG. 4C)): inhibitory effect was reduced
- inhibition of nitrate reductase ([1]; low amount of substrate (FIG. 4A)): most efficiently
- prevention of cold sore outbreak [2]: effective to prevent the outbreak of the cold sore
